These results are taken from patent US20070238731A1, “Dna-Pk Inhibitors” (KUDOS PHARMACEUTICALS LIMITED, priority 2004, published 2007).

One data set addresses DNA-PK (Homo sapiens, UniProt P78527). Conditions: read-out: IC50 towards DNA-PK; cited from earlier work.
The target in the next data set is PI 3-kinase. Conditions: stated to be the same as for DNA-PK; cited from earlier work.
The test system of another data set is cells. Conditions: cited from earlier work.
The test system of a further data set is HeLa cells. The experiment in a line: Survival Enhancement Ratio (clonogenic survival assay after 2 Gray irradiation). The data set is classed as cell-based. Conditions: inhibitor 100 nM.

SMILES strings stand for the structures.

Description for HeLa cells: Gray irradiation was calculated from the formula: [formula] The degree of cell killing was monitored by a standard clonogenic survival assay. […] Four hours later, compound or vehicle control was added to the cells. […] The cells were then incubated for a further 16 hours before the media was replaced with fresh media in the absence of DNA-PK inhibitor. After 8 days, colonies formed were fixed and stained with Giemsa (Sigma, Poole, UK) and scored using an automated colony counter (Oxford Optronics Ltd, Oxford, UK). The data was calculated as described above.

Broadly, the melting point is the temperature of the solid-liquid transition. As to `O=C(CCNCC1CCCO1)Nc1ccc(-c2cccc3c(=O)cc(N4CCOCC4)oc23)c2sc3ccccc3c12` (centres unmarked) [Compound 53], the melting point was 148 °C.
A word on the IC50: it is the midpoint of a concentration-inhibition curve. `O=c1cc(N2CCOCC2)oc2c(-c3ccccc3)cccc12` [LY294002]: the IC50 at DNA-PK and on PI 3-kinase was roughly 1000 nM in each case. Besides, the “sensitisation of cells to the effects of IR” value in the data set on cells is “weakly sensitise cells to the effects of IR”.
With `O=c1cc(N2CCOCC2)oc2c(-c3cccc4c3sc3ccccc34)cccc12`, the “Survival Enhancement Ratio (SER)” value in the data set with HeLa cells was determined as 1.3.
